Measurements: patent US9487481B2, “Bicyclic compounds” (BRISTOL-MYERS SQUIBB COMPANY, priority 2013, dated 2016)
pEC50, pIC50: −log10 of the molar value. Where “and” joins values, the source holds several entries; their conditions need not be identical. Equal entries are not always repeated.

Experiments:
circulating lymphocytes [1] = experiment: Rat Blood Lymphocyte Reduction (BLR) Assay; type: in vivo; conditions: Lewis rats, oral, 24 hr post-dose; for Percent reduction vs. control (rat blood lymphocytes): hydrochloride
Protocol: (§1) Lewis rats were dosed orally with vehicle alone (polyethylene glycol 300, “PEG300”) or with 2-amino-2-[2-(4-octylphenyl)ethyl]-1,3-propanediol, hydrochloride (CAS: 162359-56-0) as a solution in the vehicle at doses of 0.1 mg/kg, 0.5 mg/kg and 3.0 mg/kg adjusted to reflect the free amount of test article. The results are provided in Table 4a and the level of lymphocyte reduction at 24 hours post-dose was maximal at 3.0 mg/kg. The percent reduction in lymphocytes is dose-related but the relationship is not linear, with non-proportional increases in dose being required to elicit sequentially greater reductions in lymphocyte counts. […] BALB/c mice were dosed orally with vehicle alone (polyethylene glycol 300, “PEG300”) or with Example 1, Example 2, Compound 6, Compound 8, or Comparative Compound 11. Compounds were dosed as a solution or suspension in the vehicle, adjusted to reflect the free amount of test article in the event that salt forms are utilized. Blood was drawn at 24 hr and blood lymphocyte counts were determined on an ADVIA® 120 Hematology Analyzer (Siemens Healthcare Diagnostics). The results were measured as a reduction in the percentage of circulating lymphocytes as compared to the vehicle treated group at the time of measurement. The results represent the average results of all animals within each treatment group (n=2-4).

S1P1 [2] = target: T1, S1P1 (Homo sapiens, UniProt P21453); experiment: Receptor [35S] GTPγS Binding Assay, S1P1/CHO cell membranes; type: biochemical; conditions: membranes prepared from S1P1/CHO cells
Protocol: (§2) Compounds were loaded in a 384 FALCON® v-bottom plate (0.5 μl/well in a 11 point, 3-fold dilution). Membranes prepared from S1P1/CHO cells or EDG3-Ga15-bla HEK293T cells (EDG3 equivalent S1P3) were added to the compound plate (40 μl/well, final protein 3 μg/well) with MULTIDROP®. [^35S]GTP (1250 Ci/mmol, Perkin Elmer) was diluted in assay buffer: 20 mM HEPES, pH7.5, 10 mM MgCl2, 150 mM NaCl, 1 mM EGTA (ethylene glycol tetraacetic acid), 1 mM DTT (Dithiothreitol), 10 μM GDP, 0.1% fatty acid free BSA, and 10 μg/ml Saponin to 0.4 nM. 40 μl of the [^35S] GTP solution was added to the compound plate with a final concentration of 0.2 nM. The reaction was kept at room temperature for 45 min. At the end of incubation, all the mixtures in the compound plate were transferred to Millipore 384-well FB filter plates via the VELOCITY11® Vprep liquid handler. The filter plate was washed with water 4 times by using the manifold Embla plate washer and dried at 60° C. for 45 min. MicroScint 20 scintillation fluid (30 μl) was added to each well for counting on the Packard TOPCOUNT®. EC50 is defined as the agonist concentration that corresponds to 50% of the Ymax (maximal response) obtained for each individual compound tested.
(§3) A larger value for the GTPγS S1P3 EC50 value indicated less activity in the GTPγS S1P3 binding assay.

S1P1 [3] = target: T1, S1P1; experiment: S1P1 Binding Assay (33P-S1P ligand, CHO membranes); conditions: membranes from CHO cells expressing human S1P1, 0.03 nM 33P-S1P
Protocol: Membranes were prepared from CHO cells expressing human S1P1. Cells pellets (1×10^9 cells/pellet) were suspended in buffer containing 20 mM HEPES (4-(2-hydroxyethyl)-1-piperazineethanesulfonic acid), pH 7.5, 50 mM NaCl, 2 mM EDTA (Ethylenediaminetetraacetic acid) and Protease Inhibitor cocktail (Roche), and disrupted on ice using the Polytron homogenizer. The homogenate was centrifuged at 20,000 rpm (48,000 g) and the supernatant was discarded. The membrane pellets were resuspended in buffer containing 50 mM HEPES, pH 7.5, 100 mM NaCl, 1 mM MgCl2, 2 mM EDTA and stored in aliquots at −80° C. after protein concentration determination.
Membranes (2 μg/well) and 0.03 nM final concentration of ^33P-S1P ligand (1 mCi/ml, Perkin Elmer or American Radiolabeled Chemicals) diluted in assay buffer (50 mM HEPES, pH7.4, 5 mM MgCl2, 1 mM CaCl2, 0.5% fatty acid free BSA (bovine serum albumin), 1 mM NaF) were added to the compound plates (384 FALCON® v-bottom plate (0.5 μl/well in a 11 point, 3-fold dilution). Binding was performed for 45 minutes at room temperature, terminated by collecting the membranes onto 384-well Millipore FB filter plates, and radioactivity was measured by TOPCOUNT®. The competition data of the test compounds over a range of concentrations was plotted as percentage inhibition of radioligand specific binding. […]

EDG3 equivalent S1P3 = EDG3 equivalent S1P3 (Homo sapiens, UniProt Q99500); experiment: Receptor [35S] GTPγS Binding Assay, EDG3-Ga15-bla HEK293T cell membranes; type: biochemical; conditions: membranes prepared from EDG3-Ga15-bla HEK293T cells
Protocol: as §2, §3

mice = experiment: Pulmonary Toxicity Assay (BAL protein); type: in vivo; conditions: oral, 30 mg/kg, 24 hr post-dose; for Relative BAL protein vs. control: >1 = increased pulmonary toxicity
Protocol: The analysis of protein levels in bronchoalveolar lavage (BAL) fluid obtained from an animal were used to gauge pulmonary side effects. Increased levels of protein in BAL fluid were indicative of undesired pulmonary effects, such as pulmonary edema. Example 1, Example 2, Compound 6, Compound 8, and Compound 11 were administered orally to mice at a dose of 30 mg/kg. At 24 hours post dose, the mice were euthanized with intraperitoneal barbiturate overdose. The animals were placed in a supine position, a skin incision was made and blunt dissection followed to expose the trachea. The trachea was incised and a catheter was inserted 4-6 mm into the trachea. Phosphate-buffered saline (PBS; 1 mL/mouse) was infused into the lungs and then aspirated. The concentration of the BAL protein in the recovered BAL fluid was determined on an ADVIA® 1800 Chemistry Analyzer (Siemens Healthcare Diagnostics). The results represent the average results of all animals within each treatment group (n=2-4).
A value for the relative BAL protein versus control of greater than 1 indicated an increase in pulmonary toxicity compared to the administration of vehicle only. In this study, as reported in Table 5, the administration of Examples 1 and 2 gave relative BAL protein levels of 0.99 and 0.96, indicating no increase in the pulmonary toxicity. The administration of Compound 8 gave a relative BAL protein level of 1.03, which indicated slight or no increase in pulmonary toxicity. In contrast, administration of Compound 6 and Compound 11 gave relative BAL protein levels of 1.94 and 1.33, indicating increased pulmonary toxicity.

circulating lymphocytes [4] = experiment: Mouse Blood Lymphocyte Reduction (BLR) Assay; type: in vivo; conditions: BALB/c mice, oral, 1 mg/kg, 24 hr post-dose
Protocol: as §1

Male MRL/lpr mice = experiment: MRL/lpr Mouse Model of Spontaneous Lupus Erythematosus Assay; type: in vivo
Protocol: MRL/lpr mouse model of spontaneous lupus erythematosus assay is an animal model for spontaneous lupus erythematosus.
Male MRL/lpr mice (14 weeks old; Jackson Laboratories; n=12-13) were orally dosed with Example 2 (as a solution in vehicle) or vehicle alone (polyethylene glycol 300) twice a week for 11 weeks starting on day 0. Urine protein levels (by Albustix) were measured on day 0 and throughout the study. […] Additional groups of mice received a daily oral dose of dexamethasone (Dex) either independently or in combination with twice weekly dosing with Example 2. Urine protein levels (by Albustix) were measured on day 0 and throughout the study. […] All procedures involving animals were reviewed and approved by the Institutional Animal Care Use Committee.
Example 2 was tested in the MRL/lpr mouse model of spontaneous lupus erythematosus assay described hereinabove and the results are shown in Table 9.
Example 2 and dexamethasone (Dex) either independently or in combination, were tested in the MRL/lpr mouse model of spontaneous lupus erythematosus assay described hereinabove and the results are shown in Table 10.

GFP-tagged S1P1 receptor = target: T2, GFP-tagged S1P1 receptor (Homo sapiens, UniProt P21453); experiment: S1P1 Receptor Internalization Assay; type: cell-based; conditions: CHO-K1 cells expressing GFP-tagged S1P1, 45 min
T2 construct: expressed in transfected cells; host or cells: CHO-K1 cells
Protocol: CHO-K1 cells expressing a GFP-tagged S1P1 receptor were plated in 384-well poly-D-lysine coated tissue culture plates at 4×10^3 cells/well in 50 μl assay media (F12 with L-glutamine, 10% charcoal/dextran-treated FBS, 1× penicillin-streptomycin, 1M HEPES). Cell plates were incubated overnight at 37° C./5% CO2. Test compound were introduced to the cell plate from a compound source plate at 11 point, 3 fold serial dilutions and then the assay plates were incubated at 37° C./5% CO2 for 45 min. Cells were fixed and stained with 6% formaldehyde and 15 μg/ml Hoechst dye in PBS (Ca^2+/Mg^2+ free) at room temperature for 15 minutes. Cell plates were washed 4 times with PBS (Ca^2+/Mg^2+ free) with addition of 50 μl/PBS prior to plate sealing. Images were acquired by the Cellomics ARRAYSCAN® VTI high content imager. Data analysis for EC50 determination relative to internal control compound was accomplished using the Compartmental Analysis BioApplication on the Array Scan. The EC50 is defined as the agonist concentration that corresponds to 50% of the Ymax (maximal response) obtained for each individual compound tested and was quantified using the 4 parameter logistic equation to fit the data.

Male Lewis rats = experiment: Rat Adjuvant Induced Arthritis Assay (AA); type: in vivo; conditions: prophylactic
Protocol: The rat adjuvant-induced arthritis model is an animal model for human rheumatoid arthritis.
Male Lewis rats (150-175 g; Harlan, n=8 treatment group) were immunized at the base of the tail with 100 μl of 10 mg/ml freshly ground Mycobacterium butyricum (Difco Laboratories) in incomplete Freund's adjuvant (sigma). Animals were dosed once daily with the test article (as a solution or suspension in the vehicle) or vehicle alone (polyethylene glycol 300, “PEG300”) starting from the day of immunization. The volumes of their hind paws were measured in a water displacement plethysmometer (Ugo Basile, Italy). The baseline paw measurements were taken before onset of the disease (between day 7 to day 10). The paw measurements were then taken three times a week until the end of the study on day 20 to 21. All procedures involving animals were reviewed and approved by the Institutional Animal Care Use Committee.
Example 2 of the present invention was tested in the Rat Adjuvant Induced Arthritis assay described hereinabove and the results are shown in Table 7.

CB-17 SCID mice = experiment: Mouse T Cell Transfer Induced Colitis Assay; type: in vivo; conditions: q.o.d. oral; for Inflammation/Damage (Histology), Mean: 6 wk
Protocol: The mouse T Cell transfer induced colitis assay is an animal model for human colitis.
Colitis was induced in CB-17 SCID mice by the adoptive transfer of FACS sorted CD4^+CD45RB^high T cells from BALB/c mice (3×10^5/mouse, i.p.). Disease activities were monitored once a week for the initial 3 weeks and 3×/week for the subsequent weeks on the basis of body weight, soft stool or diarrhea, and anorectal prolapse. Animals were dosed orally every other day (q.o.d.) with the test article or vehicle starting from the day of T cell transfer. Mice were sacrificed 6 wk after T cell reconstitution and analyzed for bowel inflammation based on histological examination of H&E stained colon tissues. All procedures involving animals were reviewed and approved by the Institutional Animal Care Use Committee.
Example 2 was tested in the mouse T cell transfer induced colitis model described hereinabove and the results are shown in Table 8.

T1 sequence (P21453 whole entry): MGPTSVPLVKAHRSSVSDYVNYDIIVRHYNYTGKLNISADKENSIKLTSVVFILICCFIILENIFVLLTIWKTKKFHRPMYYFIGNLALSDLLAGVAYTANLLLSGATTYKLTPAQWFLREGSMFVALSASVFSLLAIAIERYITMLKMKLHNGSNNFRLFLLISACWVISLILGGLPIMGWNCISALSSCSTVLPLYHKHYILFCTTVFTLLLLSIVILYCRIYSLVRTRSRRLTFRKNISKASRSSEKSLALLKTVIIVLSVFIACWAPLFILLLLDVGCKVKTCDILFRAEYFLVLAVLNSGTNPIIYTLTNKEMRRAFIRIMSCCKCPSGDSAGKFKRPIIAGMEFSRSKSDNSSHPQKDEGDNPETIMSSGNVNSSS
T2 sequence (P21453 whole entry): as above
Chain of EDG3 equivalent S1P3 (Q99500 whole entry): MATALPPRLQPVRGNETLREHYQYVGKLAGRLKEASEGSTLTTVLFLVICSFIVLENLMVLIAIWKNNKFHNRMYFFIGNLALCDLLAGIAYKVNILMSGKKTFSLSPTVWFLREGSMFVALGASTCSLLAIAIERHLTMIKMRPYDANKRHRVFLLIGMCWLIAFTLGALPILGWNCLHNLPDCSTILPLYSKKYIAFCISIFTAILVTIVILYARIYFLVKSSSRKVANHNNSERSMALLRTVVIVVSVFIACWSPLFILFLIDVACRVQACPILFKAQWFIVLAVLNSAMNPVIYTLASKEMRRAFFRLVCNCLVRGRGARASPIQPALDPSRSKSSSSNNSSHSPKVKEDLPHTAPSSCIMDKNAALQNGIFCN

CCCCCCCCc1ccc(CCC(N)(CO)CO)cc1.Cl [2-amino-2-[2-(4-octylphenyl)ethyl]-1,3-propanediol, hydrochloride]
Rat blood lymphocytes, Compound Mean (circulating lymphocytes [1]; 0.1 mg/kg): 2.78 | Percent reduction vs. control (rat blood lymphocytes) (circulating lymphocytes [1]; 0.1 mg/kg): 69% | Rat blood lymphocytes, Compound Mean (circulating lymphocytes [1]; 0.5 mg/kg): 1.64 | Percent reduction vs. control (rat blood lymphocytes) (circulating lymphocytes [1]; 0.5 mg/kg): 82% | Rat blood lymphocytes, Compound Mean (circulating lymphocytes [1]; 3.0 mg/kg): 1.02 | Percent reduction vs. control (rat blood lymphocytes) (circulating lymphocytes [1]; 3.0 mg/kg): 89%

CCCCCC[C@@H]1CCc2cc([C@H]3CC[C@](N)(COP(=O)(O)O)C3)ccc2C1 [Example 10, (1R,3 S)-1-Amino-3-((R)-6-hexyl-5,6,7,8-tetrahydronaphthalen-2-yl) cyclopentyl)methyl dihydrogen phosphate]
pEC50 (S1P1 [2]): 9.05 | pIC50 (S1P1 [3]): 11.00 | pEC50 (EDG3 equivalent S1P3): < 4.20

CCCCCC[C@@H]1CCc2cc([C@@H]3CC[C@](N)(CO)C3)ccc2C1 (single isomer, unassigned) [Example 1]
Mouse BAL protein level, Compound Mean (mice): 8.25 mg/dL | Relative BAL protein vs. control (mice): 0.99 | Mouse blood lymphocytes, Compound Mean (circulating lymphocytes [4]): 0.7 | Percent reduction vs. control (mouse blood lymphocytes) (circulating lymphocytes [4]): 88%

CCCCCC[C@H]1CCc2cc([C@@H]3CC[C@](N)(CO)C3)ccc2C1 [Compound 6, ((1R,3R)-1-amino-3-((S)-6-hexyl-5,6,7,8-tetrahydronaphthalen-2-yl)cyclopentyl)methanol]
Mouse BAL protein level, Compound Mean (mice): 14.3 mg/dL | Relative BAL protein vs. control (mice): 1.94 and 1.96 | Mouse blood lymphocytes, Compound Mean (circulating lymphocytes [4]): 1.2 | Percent reduction vs. control (mouse blood lymphocytes) (circulating lymphocytes [4]): 78%

C[C@@H]1C[C@H]2[C@@H]3CCC4=CC(=O)C=C[C@]4(C)[C@@]3(F)[C@@H](O)C[C@]2(C)[C@@]1(O)C(=O)CO [Dex, dexamethasone, reference compound]
% Mice with Proteinurea > 100 mg/dL (Male MRL/lpr mice; 24 weeks of age, 0.1 mg/kg q.d. oral): 50% | % Mice with Proteinurea > 100 mg/dL (Male MRL/lpr mice; 24 weeks of age, 0.5 mg/kg q.d. oral): 10%

CCCCCC[C@@H]1CCc2cc([C@@H]3CC[C@](N)(COP(=O)(O)O)C3)ccc2C1 [Example 9, ((1R,3R)-1-Amino-3-((R)-6-hexyl-5,6,7,8-tetrahydronaphthalen-2-yl)cyclopentyl)methyl dihydrogen phosphate]
pEC50 (GFP-tagged S1P1 receptor): 6.44

CCCCCC[C@H]1CCc2cc([C@H]3CC[C@](N)(CO)C3)ccc2C1 [Compound 8, ((1R,3S)-1-amino-3-((S)-6-hexyl-5,6,7,8-tetrahydronaphthalen-2-yl)cyclopentyl)methanol]
Mouse BAL protein level, Compound Mean (mice): 7.5 mg/dL | Relative BAL protein vs. control (mice): 1.03 | Mouse blood lymphocytes, Compound Mean (circulating lymphocytes [4]): 2.4 | Percent reduction vs. control (mouse blood lymphocytes) (circulating lymphocytes [4]): 59%

CCCCCC[C@@H]1CCc2cc([C@H]3CC[C@](N)(CO)C3)ccc2C1 (single isomer, unassigned) [Example 2]
Mouse BAL protein level, Compound Mean (mice): 8.0 mg/dL | Relative BAL protein vs. control (mice): 0.96 | Paw Swelling on Day 20, Mean (Male Lewis rats; 0.15 mg/kg once daily oral): 1.64 mL | Paw Swelling on Day 20, Mean (Male Lewis rats; 0.5 mg/kg once daily oral): 0.70 mL | Paw Swelling on Day 20, Mean (Male Lewis rats; 1.5 mg/kg once daily oral): 0.16 mL | % Mice with Proteinurea > 100 mg/dL (Male MRL/lpr mice; 24 weeks of age, 2 mg/kg, 2x week oral): 20% | % Mice with Proteinurea > 100 mg/dL (Male MRL/lpr mice; 25 weeks of age, 0.05 mg/kg, 2x week oral): 25% | % Mice with Proteinurea > 100 mg/dL (Male MRL/lpr mice; 25 weeks of age, 0.4 mg/kg, 2x week oral): 17% | % Mice with Proteinurea > 100 mg/dL (Male MRL/lpr mice; 25 weeks of age, 2 mg/kg, 2x week oral): 10% | Week 6 Percent Body Weight Changes, Mean (from 100%) (CB-17 SCID mice; 1 mg/kg): 100% → 98.7% | Inflammation/Damage (Histology), Mean (CB-17 SCID mice; 1 mg/kg): 5.46 | Week 6 Percent Body Weight Changes, Mean (from 100%) (CB-17 SCID mice; 5 mg/kg): 100% → 103.7% | Inflammation/Damage (Histology), Mean (CB-17 SCID mice; 5 mg/kg): 3.71 | Mouse blood lymphocytes, Compound Mean (circulating lymphocytes [4]): 0.54 | Percent reduction vs. control (mouse blood lymphocytes) (circulating lymphocytes [4]): 90%

CCCCCOc1ccc2cc([C@@H]3CC[C@](N)(CO)C3)ccc2c1 [Comparative Compound 11, reference compound]
Mouse BAL protein level, Compound Mean (mice): 13.3 mg/dL | Relative BAL protein vs. control (mice): 1.33 | Mouse blood lymphocytes, Compound Mean (circulating lymphocytes [4]): 2.18 | Percent reduction vs. control (mouse blood lymphocytes) (circulating lymphocytes [4]): 52%
